Data taken from ChEMBL document CHEMBL1131392, “3-Pyridyloxypropanolamine agonists of the beta 3 adrenergic receptor with improved pharmacokinetic properties” (Bioorg Med Chem Lett, 1998).

Assays:
[1] = Oral bioavailability in dog; assay type: ADME, organism-based, Canis lupus familiaris; conditions: in vivo
[2] = Plasma clearance upon intravenous administration of 1 mg/Kg in rats; assay type: ADME, organism-based; conditions: rat
[3] = Compound was evaluated for half life (t1/2) upon intravenous administration of 1 mg/Kg in rats; assay type: ADME, organism-based; conditions: rat, in vivo

Row | bioavailability [1] | clearance [2] | half-life [3] | Compound
1 | 3% | – | – | O=S(=O)(Nc1ccc(CCNC[C@H](O)COc2ccc(O)cc2)cc1)c1cnc2ccccc2c1
2 | – | > 200 mL/min/kg | 25 min | O=S(=O)(Nc1ccc(CCNC[C@H](O)COc2ccc(O)cc2)cc1)c1ccccc1
3 | < 1% | – | – | CCCCCCNC(=O)Nc1ccc(S(=O)(=O)Nc2ccc(CCNC[C@H](O)COc3ccc(O)cc3)cc2)cc1 [L-755507]
